Reference: EPA's aquatic toxicity sets

Columns and labels:
Pimephales promelas = test: 96 h LC50 (-log10 mol/L); higher = more toxic
Daphnia magna = test: 48 h LC50 (-log10 mol/L); higher = more toxic

SMILES	96 h LC50 (-log10 mol/L) (Pimephales promelas)	48 h LC50 (-log10 mol/L) (Daphnia magna)
CCOP(=S)(OCC)SCSCC	6.02	7.13
O=C(Nc1ccc(Cl)cc1)Nc1ccc(Cl)c(Cl)c1	6.54	7.48
CC(N)=S	2.44	3.64
ClC=C(Cl)Cl	3.47	3.48
Cc1cccc(C)c1	3.82	3.65
C1CCCCC1	3.3	4.34
CCOP(=S)(OCC)SCSC(C)(C)C	6.81	8.21
O=C1C2(Cl)C3(Cl)C4(Cl)C(Cl)(Cl)C5(Cl)C3(Cl)C1(Cl)C5(Cl)C24Cl (stereo not given)	6.11	6.39
CC(C)[C@H](C(=O)O[C@H](C#N)c1cccc(Oc2ccccc2)c1)c1ccc(Cl)cc1	9.26	8.58
ClC(Cl)(Cl)C(Cl)(Cl)Cl	5.24	4.93
CC=O	3.08	0.55
COP(=S)(OC)Oc1ccc([N+](=O)[O-])cc1	4.51	7.34
CCN(CC)C(=O)c1cccc(C)c1	3.24	3.08
CCC(O)C(C)CO (stereo not given)	1.13	1.22
COP(=O)(OC)C(O)C(Cl)(Cl)Cl (stereo not given)	3.37	7.7
CC1(C)C(C=C(Cl)Cl)C1C(=O)OC(C#N)c1ccc(F)c(Oc2ccccc2)c1 (stereo not given)	8.6	9.13
CCCCC(CC)COC(=O)c1ccccc1C(=O)OCC(CC)CCCC (stereo not given)	2.55	4.55
CNC(=O)O/N=C/C(C)(C)SC	5.17	5.55
Oc1ccc2ccccc2c1	4.62	4.61
CCCN(CCC)c1c([N+](=O)[O-])cc(C(F)(F)F)cc1[N+](=O)[O-]	6.5	6.24

SMILES	96 h LC50 (-log10 mol/L) (Pimephales promelas)	48 h LC50 (-log10 mol/L) (Daphnia magna)
OCCO	0.037	0.122
CC(Cl)CCl (stereo not given)	2.93	3.34
CC(C)c1ccc2c(c1)CC[C@H]1[C@](C)(C(=O)O)CCC[C@]21C	4.97	4.56
O=[N+]([O-])OCC(CO[N+](=O)[O-])O[N+](=O)[O-]	4.92	3.85
CNC(=O)ON=C(C)SC	4.89	6.96
CCCCCCCCn1sccc1=O	6.18	6.07
Clc1ccccc1-c1ccccc1	4.67	5.42
Clc1ccc(Cl)c(-c2ccccc2Cl)c1	6.88	6.67
C=CC#N	3.57	3.78
CCNCC	1.93	3.12
C=C(C)[C@H]1Cc2c(ccc3c2O[C@@H]2COc4cc(OC)c(OC)cc4[C@@H]2C3=O)O1	7.82	8.03
ClC(Cl)C(Cl)Cl	3.92	3.46
CCNc1nc(Cl)nc(NC(C)C)n1	4.16	3.6
OCCOCCOCCO	0.309	0.46
Cc1ccccc1C	3.81	3.79
CCOP(=S)(OCC)Oc1cc(C)nc(C(C)C)n1	4.81	8.56
ClCCl	2.42	2.66
CC(Cl)(Cl)Cl	3.4	3.72
ClCC(Cl)Cl	3.21	3.49
CC1(C)[C@H](C=C2CCCC2)[C@H]1C(=O)OCc1coc(Cc2ccccc2)c1	8.57	8.16
